Assay results: US6670168B1, “Recombinant Streptomyces hygroscopicus host cells that produce 17-desmethylrapamycin” (Kosan Bioscience, Inc., priority 1999, dated 2003)

Assay: immunosuppressive activity compared with rapamycin (no test described)
Conditions: relative to rapamycin; qualitative statement, no method or data given

COC1CC(CC(C)C2CC(=O)C(C)C=C(C)C(O)CC(=O)C(C)CC(C)C=CC=CC=C(C)C(O)CC3CCC(C)C(O)(O3)C(=O)C(=O)N3CCCCC3C(=O)O2)CCC1O (stereo not shown) [16-desmethyl-27-desmethoxyrapamycin]
immunosuppressive activity: lower immunosuppressive activity than rapamycin
